# Counter-ions that a name gives are not always drawn. Like-named read-outs stand apart in the source and are kept apart here.
# Experiments:
# Format in all cases: cell-based
# human blood platelets = experiment: In vitro inhibition of ADP-induced human platelet aggregation (platelet-rich plasma, aggregometer)
# Method: Procedure for Determining In Vitro Platelet Aggregation-Inhibitory Activity. Adenosine diphosphate (ADP) was used to induce platelet aggregation and was utilized as the sodium salt. A 10 mM stock solution was prepared fresh before each use in modified Tyrode's buffer and working dilutions were prepared with modified Tyrode's buffer immediately prior to use. The buffer contained NaCl (137.00 mM), KCl (2.70 mM), NaHCO3 (11.90 mM), NaH2 PO4 H2 O (0.36 mM) and glucose (5.60 mM) in redistilled water. Adjustment to pH 7.4 was effected by addition of 1N HCl.
# The blood was transferred into plastic centrifuge tubes containing 3.2% sodium citrate (blood/citrate ratio 8:1) and centrifuged at 120Xg for 15 minutes at 23° C., yielding platelet-rich plasma (PRP); platelet-poor-plasma (PPP) was obtained by centrifugation of citrated whole blood at 1,100Xg for 15 min at 23° C. The platelet count of PRP was determined and adjusted to a final count of 300,000 platelet per mm^3 by dilution with autologous PPP. […] The plasma so obtained was transferred using a 1.0 ml Centaur pipette into a 50 ml polyethylene centrifuge tube. In order to maintain plasma pH in the appropriate range, the air in the tubes are displaced gently (2 minutes) with a 5% (CO2 -95% air (v/v) mixture and the tube capped. The plasma was maintained at 37° C. in a water bath until used in the aggregation experiments.
# Assays of platelet aggregation were performed at least in duplicate, using plasma acquired from different donors, employing a method developed by Quintana, et al. (Quintana, et al., Relationships Between the Chemical Constitution of Carbamoylpiperidines and Related Compounds, and Their Inhibition of ADP-Induced Human Blood Platelet Aggregation, Thromb. Res. Vol. 22, Pages 665-680, 1981); Quintana, et al., Effects of Ethanol and of Other Factors on ADP-Induced Aggregation of Human Blood Platelets in Vitro, Thromb. Res., Vol. 20, Pages 405-415, 1980) (cf. Born, Nature, Vol. 194, Pages 927-929, 1962) and Mustard, et al., J. Lab. Clin. Med., Vol. 64, Pages 548-559, 1964).
# Initially, in each experiment, 0.45-ml aliquots of PRP were placed in siliconized cuvettes and stirred (1,100 rpm) in the aggregometer at 37° C. to ascertain the absence of spontaneous aggregation. Appropriate ADP solutions (50 μl) were subsequently injected using a Hamilton microliter syringe to determine the minimal concentration eliciting maximal biphasic aggregation. […] In each case, the concentration of ADP so determined was used in eliciting aggregation throughout each specific set of aggregometric evaluations.
# 0.5 μl of a solution of the evaluant compound in redistilled 95% ethanol was injected into a stirred ([…]) 0.4-ml aliquot of plasma in a siliconized cuvette in the aggregometer-well (37° C). After 15 seconds, the cuvette was transferred to an incubator (also at 37° C.) and the contents held at this temperature, without stirring, until 2 minutes postinjection. The cuvette was then returned to the aggregometer-well, a base-line being recorded for 2 minutes to detect any spontaneous aggregation. At exactly 4 minutes after injection of the evaluant solution, 50 μl of the appropriate ADP solution was injected and aggregation recorded for 5.5 minutes. Evaluants were studied at least 4 different concentrations. Control experiments (ethanol in a final concentration of 0.095% v/v) were performed in conditions parallel with those involving the respective evaluants, and were initiated either 1 minute prior to or 1 minute after the start of experiments employing the test compounds. This permitted injections to be made precisely at the specified times.
# [1] = tested on: cytosolic ionized calcium in human platelets; experiment: Inhibition of collagen-induced rise in cytosolic ionized calcium (aequorin luminescence); conditions: collagen-induced, 1mM [Ca2+]o (n = 4), read-out: Ica50 ± S.E. Collagen-induced (50% inhibition of collagen-induced rise in cytosolic ionized calcium)
# Method: (§1) Procedure for Cytosolic Ionized Calcium Determination. The basic procedure of Yamaguchi, et al. (Thromb. Res., Vol. 44, Pages 165-174, 1986) was followed. Blood was collected from six blood donors, aged 24-38 years, who had fasted overnight and affirmed abstinence from alcohol, caffeine and medications of any kind for a period of at least one week prior to donation. […] Platelets were collected (800 g, 15 min), resuspended in and washed (800 g, 15 min) with HEPES-buffered saline (140 mM NaCl, 2.7 mM KCl, 0.1% bovine albumin, 0.5% glucose, 3.8 mM HEPES, pH 7.6) with EGTA (5 mM) and PGE1 (1 μM). The platelet pellet was resuspended in 90 μl of the same buffer and added to 20μl of 3 mg/ml aequorin solution in a 1.5 ml Eppendorf centrifuge tube. Six 1 μl aliquots of DMSO were added at 90 second intervals with brief, gentle mixing on a Vortex mixer and the platelet suspension was incubated 2 minutes after the last addition. One ml of HEPES-buffered saline was added, gently mixed, and again incubated for 2 minutes. The platelets were pelleted (1000 g, 30 sec), resuspended in HEPES-buffered saline to which was added either 1 mM Mg Cl2, (calcium-free buffer) or 1 mM Mg Cl2 and 1 mM Ca Cl2 (calcium buffer), depending on the experiment. The platelet count was adjusted to 3-4×10^5 platelets/μl.
# (§2) The Platelet Ionized Calcium Aggregometer (Chrono-Log Corp., Ltd., Havertown, Pa.) was used to obtain simultaneous aggregation and luminescence data under the following experimental conditions: (1) platelet suspension, 1 ml, was equilibrated at 37° C. with stirring at 1100 rpm; (2) 100 μl (1.2 μg) of fibrinogen was added; (3) the vehicle (95% ethanol) or the test compound in vehicle was added; (4) when needed, 10 μl of the desired concentration of EGTA was added 30 seconds prior to addition of the agonist; then (5) the agonist (Collagen, 5 μg or 20 μg) was added and the time noted. At one minute after addition of the agonist in Channel 1, a platelet sample containing fibrinogen in Channel 2 was lysed with 10 μl of a 1:1 solution of Triton X-100 (final concentration 0.005%) 10 mM CaCl2 (final concentration 0.5 mM). Treated and control […] data were corrected for time dependent decay of fluorescence using data from the untreated lysed controls.
# (§3) Normally 4 compound-treated samples (at 4 different concentrations) interspersed with 3 control samples were evaluated at 4.5 minute intervals starting 18-23 minutes after the DMSO treatment. The Ia50 values were calculated as described earlier. The compound concentrations effecting 50% inhibition (Ica50) of collagen-induced cytosolic ionized calcium values was determined by linear regression analysis.
# (§4) Compounds I-rac, (+)-I,(IC) and (-)-I(IA) were evaluated. The Ia50 (collagen-induced aggregation) and Ica50 (compound concentration required to inhibit by 50% the collagen-induced rise in cytosolic ionized calcium)values determined with platelet suspensions in HEPES-buffered saline containing 1.0 mM CaCl2 were as follows:
# Collagen-stimulation of platelets suspended in media containing 1.0 mM of Ca^2+ (FIG. 13) or 1.0 mM (FIG. 14A) or 2.0 mM (FIG. 14B) EGTA (a calcium chelator) gave […] cytosolic ionized calcium peak (aequorin-indicated luminescence). Contrarily, two phases of Ca^2+ mobilization were observed when aequorin-loaded human platelets suspended in a medium containing 0.1 mM EGTA were stimulated with collagen (FIG. 14, designation D). The first corresponded to platelet shape change and the second peak to aggregation. […] The platelet suspension (1.0 ml) was pre-incubated with 1.0 μl of (A) 95% ethanol, (B) a solution of Compound I (14.59 μM) in 95% ethanol, or (C) a solution of Compound I (23.87 μM) in 95% ethanol. Collagen (20 μg) was added at time indicated by the arrows. Luminescence was again recorded at a gain of 0.5. […] Accordingly, the stereo-selective inhibitory properties of the compounds of the present invention appear to be mediated through the inhibition of [Ca^2+ ].
# human platelets = experiment: Inhibition of collagen-induced aggregation, washed aequorin-loaded platelet suspension; conditions: Homo sapiens, Platelet; collagen-induced aggregation (n = 4); HEPES-buffered saline, 1.0 mM CaCl2; read-out: Ia50 ± S.E. Collagen-induced
# Method: as §1, §2, §3
# as §4, with “follows: […]” for “follows:”
# [2] = Homo sapiens, Platelet, racemic compounds, ADP-induced, read-out: IC50 (compound concentration which inhibits ADP-induced platelet aggregation by 50%) ± S.E.
# [3] = Homo sapiens, Platelet, read-out: IC50 (compound concentration which inhibits ADP-induced platelet aggregation by 50%) ± S.E., racemic compounds, ADP-induced
# [4] = Homo sapiens, Platelet, read-out: Ia50 ± S.E. ADP-induced, table 4, ADP-induced, 5 to 7 individual determinations
# [5] = Homo sapiens, Platelet, read-out: Ia50 (compound concentrations affecting 50% inhibition of aggregation) ± S.E., Table II, ADP-induced, n = 5 for (0)I and 6 for all others
# [6] = Homo sapiens, Platelet, read-out: Ia50 ± S.E. ADP-Induced, table 3, ADP-induced (n = 5-6)
smiles,measurement,setting,value
"CCN(CC)CC1CCCN(Cc2ccc(CN3CCCC(CN(CC)CC)C3)cc2)C1 (racemic) [Compound 4, α,α'-Bis[3-(N,N-diethylaminomethyl)-piperidino]-p-xylene tetrahydrochloride]",IC50,human blood platelets; [2],156 ± 460 µM
same,IC50,"human blood platelets; Homo sapiens, Platelet, racemic compounds, C = IC50 × 10^-3, read-out: Log1/C (converted)",1570 µM
"O=C(NCc1ccccc1)C1CCCN(Cc2ccc(CN3CCCC(C(=O)NCc4ccccc4)C3)cc2)C1 (racemic) [Compound 5, α,α'-Bis[3-(N-benzylcarbamoyl)piperidino]p-xylene dihydrobromide]",IC50,human blood platelets; [2],53.6 ± 5.3 µM
"CCN(Cc1ccccc1)C(=O)C1CCCN(Cc2ccc(CN3CCCC(C(=O)N(CC)Cc4ccccc4)C3)cc2)C1 (racemic) [Compound 6, α,α'-Bis[3-(N-benzyl-N-ethylcarbamoyl)piperidino]-p-xylene dihydrobromide]",IC50,human blood platelets; [2],37.7 ± 4.6 µM
"CCCN(Cc1ccccc1)C(=O)C1CCCN(Cc2ccc(CN3CCCC(C(=O)N(CCC)Cc4ccccc4)C3)cc2)C1 (racemic) [Compound 7, α,α'-Bis[3-(N-benzyl-N-propylcarbamoyl)piperidino]p-xylene dihydrobromide]",IC50,human blood platelets; [2],72.9 ± 20.8 µM
"O=C(C1CCCN(Cc2ccc(CN3CCCC(C(=O)N(Cc4ccccc4)Cc4ccccc4)C3)cc2)C1)N(Cc1ccccc1)Cc1ccccc1 (racemic) [Compound 8, α,α'-Bis[3-(N,N-dibenzylcarbamoyl)piperidino] p-xYlene dihydrobromide]",IC50,human blood platelets; [2],303 ± 60.8 µM
"O=C(C1CCCN(Cc2ccc(CN3CCCC(C(=O)N4CCCCC4)C3)cc2)C1)N1CCCCC1 (racemic) [Compound 10, α,α'-Bis[3-(piperidinocarbonyl)piperidino] p-xylene dihydrobromide]",IC50,"human blood platelets; Homo sapiens, Platelet, table 4, ADP-induced, 5 to 7 individual determinations, read-out: Ia50 ± S.E. ADP-induced",28.9 ± 8.96 µM
"CN(Cc1ccccc1)C(=O)C1CCCN(Cc2ccc(CN3CCCC(C(=O)N(C)Cc4ccccc4)C3)cc2)C1 (racemic) [Compound 13c, α,α'-Bis[3-(N-benzyl-N-methylcarbamoyl)piperidino]p-xylene]",IC50,human blood platelets; [3],27.3 ± 3.2 µM
same,IC50,human blood platelets; [4],27.3 ± 3.23 µM
"CN(Cc1ccccc1)C(=O)C1CCCN(Cc2ccc(CN3CCCC(C(=O)N(C)Cc4ccccc4)C3)cc2)C1 (single isomer, unassigned) [Compound 13c-A]",IC50,"human blood platelets; read-out: Ia50 ± S.E. ADP-induced, table 4, ADP-induced, 5 to 7 individual determinations, listed as 13c-A(-)",57.4 ± 6.01 µM
"CN(Cc1ccccc1)C(=O)C1CCCN(Cc2ccc(CN3CCCC(C(=O)N(C)Cc4ccccc4)C3)cc2)C1 (single isomer, unassigned) [Compound 13c-C]",IC50,"human blood platelets; read-out: Ia50 ± S.E. ADP-induced, table 4, ADP-induced, 5 to 7 individual determinations, listed as 13c-C(+)",9.55 ± 1.47 µM
"CCN(CC)C(=O)C1CCCN(Cc2ccc(CN3CCCC(C(=O)N(CC)CC)C3)cc2)C1 (single isomer, unassigned) [IA]",IC50,human blood platelets; [5],233 ± 52.1 µM
same,IC50,human blood platelets; [6],233 µM
same,IC50,[1]; listed as IA (-)-I,171 µM
same,IC50,human platelets,199 µM
"CN(C)CCCN1c2ccccc2Sc2ccc(Cl)cc21 [Chlorpromazine, reference compound]",IC50,human blood platelets; [5],156 ± 25.5 µM
"CCCCN(C)C(=O)C1CCCN(Cc2ccc(CN3CCCC(C(=O)N(C)CCCC)C3)cc2)C1 (stereo not drawn) [Compound 9, α,α'-Bis[3-(N-methyle-N-butylcarbamoyl)piperidino] p-xylene dihydrobromide]",IC50,human blood platelets; [3],22.1 ± 5.5 µM
CN(Cc1ccccc1)C(=O)[C@@H]1CCCN(Cc2ccc(CN3CCC[C@H](C(=O)N(C)Cc4ccccc4)C3)cc2)C1 [Compound 13c-B],IC50,human blood platelets; [4],46.9 ± 8.37 µM
CCN(CC)C(=O)[C@@H]1CCCN(Cc2ccc(CN3CCC[C@H](C(=O)N(CC)CC)C3)cc2)C1 [IB],IC50,human blood platelets; [5],41.4 ± 11.8 µM
same,IC50,human blood platelets; [6],41.4 µM
same,IC50,"[1]; Homo sapiens, Platelet",24.3 µM
same,IC50,human platelets,65.7 µM
"CN1CCN(CCCN2c3ccccc3Sc3ccc(C(F)(F)F)cc32)CC1 [Trifluoperazine, reference compound]",IC50,"human blood platelets; Homo sapiens, Platelet, Table II, ADP-induced, n = 5 for (0)I and 6 for all others, read-out: Ia50 (compound concentrations affecting 50% inhibition of aggregation) ± S.E.",202 ± 21.9 µM

# — US5219867A, “Platelet aggregation inhibitory agents” (priority 1992, dated 1993)
